In patent US11747335B2, “Compositions and methods for assaying platelet reactivity and treatment selection” (University of Vermont And State Agriculture College, priority 2012, dated 2023):
“Also recorded” adds a separate entry of the source. Read-outs that look alike come from different tables or passages of the source.

Key:
platelets [1] = experiment: cells; type: cell-based, human; conditions: for fold induction at 0.5 µg/mL: Homo sapiens, Platelet
Source text: Volumes used minimize aggregation of platelets during activation. Activation of platelets was identified by anti-CD62-phycoerythrin (PE, identifies P-selectin) and fluorescein isothiocyanate (FITC)-conjugated PAC-1 (binds to activated GP IIb-IIIa) as described (Serrano F A, et al., Thromb J 2007; 5:7; Schneider D J, et al., Circulation 96:2877-83, 1997; Kabbani S S, et al., Circulation 2001; 104:181-6; Aggarwal A, et al., Am J Kidney Dis 2002; 40:315-22; and Schneider D J, et al., Diabetes Care, 32:944-9, 2009). Platelet expression of FcγRIIa was quantified with the use of anti-CD32-PE. For both assays (activation and quantification of expression of FcγRIIa) PE-Cy5-anti-CD42b was used as an activation independent marker of platelets. […] Fluorochrome labeled antibodies were from Becton Dickinson (San Jose, Calif.). […] Louis, Mo.), and ADP from BioData (Horsham, Pa.). […] J. et al., J Exp Med 1986; 163:826-836). The SRC kinase antagonist PP2 (EMD Biosciences) was dissolved in dimethylsulfoxide (DMSO, Sigma). Tirofiban was obtained from Merck Research Laboratories (Whitehouse Station, N.J.). The reaction mixture was incubated for 15 minutes at room temperature without stirring before platelets were fixed and erythrocytes lysed by addition of Optilyse-C solution (Beckman Coulter). Flow cytometric analysis was performed with the use of a Beckman Coulter FC500 (Miami, Fla.). Platelets were identified on the basis of size (forward and side scatter) and the binding of an activation independent ligand (anti-CD42b). As described, control samples to define a threshold for activation-dependent binding used non-immune IgG (Serrano F A, et al., Thromb J 2007; 5:7; Schneider D J, et al., Circulation 96:2877-83, 1997; Kabbani S S, et al., Circulation 2001; 104:181-6; Aggarwal A, et al., Am J Kidney Dis 2002; 40:315-22; and Schneider D J, et al., Diabetes Care, 32:944-9, 2009). Activation of platelets is reported as the percentage of platelets that bound an activation dependent ligand, a result that we have shown correlates directly with mean fluorescence intensity (Schneider D J, et al., Thromb Haemost 2001; 85:309-13).

platelets [2] = experiment: Platelet activation in whole blood by flow cytometry, binding of PAC-1 (activated GP IIb-IIIa); type: cell-based, human
Source text: Volumes used minimize aggregation of platelets during activation. Activation of platelets was identified by anti-CD62-phycoerythrin (PE, identifies P-selectin) and fluorescein isothiocyanate (FITC)-conjugated PAC-1 (binds to activated GP IIb-IIIa) as described (Serrano F A, et al., Thromb J 2007; 5:7; Schneider D J, et al., Circulation 96:2877-83, 1997; Kabbani S S, et al., Circulation 2001; 104:181-6; Aggarwal A, et al., Am J Kidney Dis 2002; 40:315-22; and Schneider D J, et al., Diabetes Care, 32:944-9, 2009). Platelet expression of FcγRIIa was quantified with the use of anti-CD32-PE. For both assays (activation and quantification of expression of FcγRIIa) PE-Cy5-anti-CD42b was used as an activation independent marker of platelets. […] Fluorochrome labeled antibodies were from Becton Dickinson (San Jose, Calif.). […] Louis, Mo.), and ADP from BioData (Horsham, Pa.). […] J. et al., J Exp Med 1986; 163:826-836). The SRC kinase antagonist PP2 (EMD Biosciences) was dissolved in dimethylsulfoxide (DMSO, Sigma). Tirofiban was obtained from Merck Research Laboratories (Whitehouse Station, N.J.). […] Activation of platelets is reported as the percentage of platelets that bound an activation dependent ligand, a result that we have shown correlates directly with mean fluorescence intensity (Schneider D J, et al., Thromb Haemost 2001; 85:309-13).

FcγRIIa = experiment: Phosphorylation of FcγRIIa during platelet activation (immunoprecipitation, Western blot with anti-phosphotyrosine); type: cell-based, human
Description: Whole platelet lysates were prepared by the addition of an equal volume of 2× lysis buffer (2% Nonidet P-40 1, 300 mM NaCl, 50 mM Tris, 2 mM Na3VO4, halt protease and phosphatase inhibitor cocktail [Pierce Biochemicals], ph 7.3) in an ice bath for 30 min. Lysates to be used for immunoprecipitation were pre-cleared of antibodies by the addition of protein G Dynabeads (Invitrogen, Carlsbad, Calif.).
Immunoprecipitation was performed overnight at 4° C. with the use of goat anti-CD32A/C (Santa Cruz Biotechnology, Santa Cruz, Calif.) or a mouse anti-phosphotyrosine conjugated with magnetic beads (4G10, Millipore, Billerica, Mass.). When anti-CD32A/C was used, antigen-antibody complexes were isolated with the use of protein G-coated magnetic beads (Dynabeads, Invitrogen, Carlsbad, Calif.) for 3 hours. Beads with antigen-antibody complexes were washed once with 0.5× lysis buffer and twice with phosphate buffered saline. Proteins were separated from beads in sample buffer before electrophoresis and wet transfer to Immobilon FL membranes (Millipore, Billerica, Mass.). […] Bands were detected with the use of use of a Li-Cor Odyssey Infrared Imaging system (Li-Cor Biosciences, Lincoln, Nebr.) or chemiluminescence (Amersham/General Electric Healthcare, Piscataway, N.J.).

Megakaryocyte cell line = experiment: Expression of FcγRIIa by a megakaryocyte cell line; type: cell-based; conditions: IFNγ treatment; FIG. 10
[3] = tested on: human stem cell derived Megakaryocytes; experiment: Expression of FcγRIIa by human stem cell derived megakaryocytes; type: cell-based; conditions: IFNγ treatment; FIG. 11

`CC(C)(C)n1nc(-c2ccc(Cl)cc2)c2c(N)ncnc21` [PP2] was tested, and the “effect of PP2 on agonist-induced platelet activation, P-selectin expression” value (platelets [1]; PP2 20 μM vs vehicle DMSO, whole blood, healthy subjects n=7, FIG. 6B) was “inhibited activation induced by each agonist”, the “effect of PP2 on agonist-induced platelet activation, PAC-1 binding” value (platelets [2]; PP2 20 μM vs vehicle DMSO, whole blood, healthy subjects n=7, FIG. 6A) was “inhibited activation induced by each agonist” and the “effect of PP2 on phosphorylation of FcγRIIa during platelet activation” value (FcγRIIa; PP2 20 μM) was “prevented phosphorylation”.

For `CCCCS(=O)(=O)N[C@@H](Cc1ccc(OCCCCC2CCNCC2)cc1)C(=O)O` [tirofiban], the fold induction at 0.5 µg/mL (platelets [1]; read-out: fold induction of ADP induced platelet activation by added fibrinogen after pretreatment with tirofiban) was 1.2 ± 0.1, the fold induction at 0.5 µg/mL (platelets [1]; read-out: fold induction of ADP-induced platelet activation by added Factor XIII after pretreatment with tirofiban) was 0.8 ± 0.2 and the “effect of tirofiban on platelet activation induced by goat anti-FcγRIIa” value (platelets [1]; tirofiban 0.5 μg/ml, activator goat anti-FcγRIIa) was “nor did it alter activation”. For the same compound, the “effect of tirofiban on agonist-induced P-selectin expression” value (platelets [1]; tirofiban 0.5 μg/ml, n=3 subjects, FIG. 5D) was “did not attenuate” and the “effect of tirofiban on binding of PAC-1 to platelets” value (platelets [2]; tirofiban 0.5 μg/ml) was “blocked completely; also recorded: abolished binding of PAC-1”.

In the case of “IFNγ: cytokine that increases FcγRIIa expression by megakaryocytes”, the “effect on expression of FcγRIIa by a Megakaryocyte cell line” value (Megakaryocyte cell line) is reported as “increases” and the “effect on expression of FcγRIIa by human stem cell derived Megakaryocytes” value [3] is reported as “increases”.

With `Nc1ncnc2c1ncn2[C@@H]1O[C@H](COP(=O)(O)OP(=O)(O)O)[C@@H](O)[C@H]1O` [ADP, adenosine diphosphate] the “time after exposure at which phosphorylation of FcγRIIa was greatest” value (FcγRIIa; platelets from healthy subjects, thrombin 50 nM, convulxin 10 ng/ml, ADP 25 μM, PAF 100 nM) was 3 to 5 min.
